Source: article PMC6066796 (Antiviral Research, 2018)
Read-outs that look alike come from different tables or passages of the source.

Legend:
NiV (Malaysian genotype) = assay: microbe, parasite or virus in culture; assay type: cell-based, Nipah virus
HeV = assay: microbe, parasite or virus in culture; assay type: cell-based, Hendra virus
hPIV3-GFP = assay: microbe, parasite or virus in culture; assay type: cell-based, human parainfluenza virus 3
rMV^EZEGFP(3) = assay type: cell-based, Measles virus
rgRSV224 = assay: microbe, parasite or virus in culture; assay type: cell-based, respiratory syncytial virus
[1] = system: recombinant EBOV (Mayinga variant); assay type: cell-based, Ebola virus
EBOV-ZsG = assay: microbe, parasite or virus in culture; assay type: cell-based, Ebola virus
EBOV (Makona variant) = assay type: cell-based, Ebola virus
SUDV (Gulu variant) [2] = assay type: cell-based
RVFV-GFP, ZH501 = assay: microbe, parasite or virus in culture; assay type: cell-based, Rift Valley Fever virus
NiV-GFP2AM [3] = assay: microbe, parasite or virus in culture; assay type: cell-based, Nipah virus
NiV-GFP2AM [4] = assay: microbe, parasite or virus in culture; assay type: cell-based, Nipah virus; remark: listed apart in the source
MARV-ZsG = assay type: cell-based, Marburg virus
reporter EBOVs = assay type: cell-based, Ebola virus
HeLa cells = conditions: human
Huh7 cells = conditions: human
SK-N-MC cells = conditions: human
NCI-H358 cells [5] = conditions: human
NCI-H358 cells [6] = system: NCI-H358 cells
EBOV = conditions: at 1000 μM; cited from earlier work
NiV and EBOV = assay type: cell-based, Nipah virus, Ebola virus
SUDV (Gulu variant) [7] = assay type: cell-based; remark: listed apart in the source
henipavirus (NiV, HeV) = assay type: cell-based, Nipah virus, Hendra virus
[8] = Henipavirus nipahense, SAEC, in Homo sapiens

For [N-]=[N+]=N[C@]1(CO)O[C@@H](n2ccc(N)nc2=O)[C@H](O)[C@@H]1O [R1479, 4′-azidocytidine], the “SI (selective index)” value (NiV (Malaysian genotype)) was 2.9 ± 0.95 [>34], the EC50 (NiV (Malaysian genotype); Henipavirus nipahense, NCI-H358) was 2900 nM and the “SI (selective index)” value (HeV) was 2.1 ± 0.57 [>47]. For the same molecule, the EC50 (HeV; Henipavirus hendraense, NCI-H358) was 2100 nM, the “SI (selective index)” value (hPIV3-GFP) was 3.2 ± 0.50 [>32] and the EC50 (hPIV3-GFP; Human respirovirus 3, NCI-H358) was 3200 nM. For the same molecule, the “SI (selective index)” value (rMV^EZEGFP(3)) was 1.9 ± 0.12 [>52], the “SI (selective index)” value (rgRSV224) was 3.3 ± 0.39 [>30] and the EC50 (rgRSV224; human respiratory syncytial virus, NCI-H358) was 3300 nM. For the same molecule, the EC50 [1] was 2600 nM, the “SI (selective index)” value (EBOV-ZsG) was 2.1 ± 0.07 [>47] and the EC50 (EBOV-ZsG; Zaire ebolavirus, NCI-H358) was 2100 nM. For the same molecule, the EC50 (EBOV (Makona variant)) was 2100 nM, the “Inhibition of FFU formation” value (EBOV (Makona variant)) was “dose-dependent inhibition” and the “Reduction of infectious SUDV titers” value (SUDV (Gulu variant) [2]; at 25 μM) was > 4 orders of magnitude. The EC50 (RVFV-GFP, ZH501; Rift Valley fever virus, NCI-H358) was > 50000 nM, the EC50 (NiV-GFP2AM [3]; [8]) was > 50000 nM and the EC50 (NiV-GFP2AM [4]; [8]) was > 50000 nM. For the same molecule, the “Inhibition of MARV infection by FFU assay” value (MARV-ZsG) was “did not show any significant inhibition”, the “Antiviral activity against reporter EBOVs in Huh7 cells” value (reporter EBOVs) was “significantly decreased antiviral activity” and the “R1479-TP level (intracellular triphosphate)” value (“R1479-TP level” below) (HeLa cells) was 136 ± 21 pmol/million cells. The “R1479-TP level” value (Huh7 cells) was 18 ± 0.6 pmol/million cells, the “R1479-TP level” value (SK-N-MC cells) was 42 ± 10 pmol/million cells and the “R1479-TP level” value (NCI-H358 cells [5]) was 391 ± 72 pmol/million cells. For the same molecule, the “Cytotoxicity (cell viability)” value (NCI-H358 cells [6]) was “mild cytotoxicity”.
In the case of NC(=O)c1nc(F)c[nH]c1=O [Favipiravir], the “Decrease of EBOV infectious yield” value (EBOV) is listed as 4 logTCID50/mL.
In the case of [N-]=[N+]=N[C@]1(CO)O[C@@H](n2ccc(N)nc2=O)[C@@H](O)[C@@H]1O [RO-9187, 2′-deoxy-2′-β-hydroxy-4′-azidocytidine], the “Antiviral activity against NiV and EBOV” value (NiV and EBOV) is reported as “little to no antiviral activity”.
“2′-monofluoro-4′-azidocytidine [2′F-4′N3-C]” gave an EC50 (hPIV3-GFP) of 160 nM, an EC50 (rMV^EZEGFP(3)) of 270 nM and an EC50 (rgRSV224) of 280 nM. The EC50 [1] was 7790 nM, the EC50 (EBOV-ZsG) was 3850 nM and the “Inhibition of FFU formation” value (EBOV (Makona variant)) was “did not detect significant inhibition”. The EC50 (SUDV (Gulu variant) [7]) was ~10000 nM, the “Reduction of infectious SUDV yield” value (SUDV (Gulu variant) [2]) was “approximately 1.5 orders of magnitude” and the EC50 (RVFV-GFP, ZH501) was > 50000 nM. For the same molecule, the “Effect on GFP expression” value (NiV-GFP2AM [3]) was “completely abolished”, the “Effect on CPE” value (NiV-GFP2AM [4]) was “completely abolished” and the EC50 (MARV-ZsG) was > 50000 nM. For the same molecule, the “Inhibition of MARV infection by FFU assay” value (MARV-ZsG) was “did not show any significant inhibition”, the “Reduction of infectious henipavirus yields” value (henipavirus (NiV, HeV)) was 4–5 orders of magnitude and the “Antiviral activity against reporter EBOVs in Huh7 cells” value (reporter EBOVs) was “significantly decreased antiviral activity”.
In the case of [N-]=[N+]=N[C@]1(CO)O[C@@H](n2ccc(N)nc2=O)[C@@H](F)[C@@H]1O [RO-0622, 2′-deoxy-2′-β-fluoro-4′-azidocytidine], the “Antiviral activity against NiV and EBOV” value (NiV and EBOV) is reported as “little to no antiviral activity”.
